Laboratory results from US6512009B1, “Combination for the treatment of alcohol and drug dependence containing an opioid antagonist and a NMDA receptor complex modulator” (Lipha, priority 1998, dated 2003).
Like-named read-outs stand apart in the source and are kept apart here.

Tests used:
ethanol dependent rats = experiment: Voluntary ethanol intake in ethanol dependent (alcohol preferring) rats, free choice between 10% ethanol solution and water; type: in vivo, Long Evans rats
Description: Ethanol dependent rats were selected as previously described (Boismare F., Daoust M., Moore N., Saligaut C., Chadelaud M., Chrétien P., Durlach J., Lhuintre J. P., A homotaurine derivative reduces the voluntary intake of ethanol by rats: are cerebral GABA receptors involved?, Pharm. Biochem. Behav., 21, 787-789, 1984).
Adult male Long Evans rats weighing 180±20 g at the beginning of the experiment were obtained from “Centre d'élevage Janvier” (France). The rats were housed in individual cages and had free access to food (UAR, France standard diet). They were kept with an ambient temperature of 21° C. and a 12 hr/12 hr light-dark photoperiod. […] Every other day, fluid intakes and body weights were measured, the drinking bottles were refilled and randomly rotated. Food consumption was also measured each week be weighting food pellets. […]
All the drugs were prepared as saline (NaCl 0.9%) solutions and animals were daily i.p. injected with: acamprosate 100 mg/kg, naltrexone 10 mg/kg, acamprosate 100 mg/kg+naltrexone 10 mg/kg or saline 1 ml/200 g body weight. […] Alcohol intakes were expressed as gram of absolute alcohol drunk per kilo of body weight per day (g.kg.d) for alcohol.
FIG. 1 represents means±sem of ethanol intake, expressed as gram of absolute alcohol during each period of pre-treatment, treatment and post-treatment in all groups of rats. […]

[1] = test system: alcohol dependent patients; conditions: used together with supportive therapy; cited from earlier work

Row | SMILES | Ethanol intake (ethanol dependent rats) | Rate of relapse to heavy drinking [1] | Ethanol intake (ethanol dependent rats; acamprosate 100 mg/kg daily i.p., 14 days treatment period, p<0.008)
1 | O=C1CC[C@@]2(O)[C@H]3Cc4ccc(O)c5c4[C@@]2(CCN3CC2CC2)[C@H]1O5 [naltrexone] | significantly decreased | reduce the rate of relapse to heavy drinking | –
2 | CC(=O)NCCCS(=O)(=O)O [acamprosate] | – | – | significantly decreased
